The text below walks through data of patent publication US12433909B2, “Formulations of cyclic macromolecule-based nanoparticles encapsulating small molecules” (Board of Regents of The University of Texas System, priority 2019, dated 2025).

Series [1] in a line: experimental drug loading in CDN nanoparticles, quantified by absorbance. The format is physicochemical. Particulars: for drug loading in CDNs 1-3: theoretical loading of 10% (w/w). As for the experimental part:
Panobinostat-loaded nanoparticles were formulated by doping a given concentration of the drug with CDN in 2.5 vol % DMSO-aqueous medium. Panobinostat was added at different theoretical loadings, and the amount of panobinostat incorporated into the network after thorough washing was quantified by absorbance.
An aqueous dispersion (2.0 mL) of blank CDN nanoparticles (10 mg/mL) was doped with DMSO (50 uL) solution of panobinostat (40 mg/mL; 10% theoretical loading). The aqueous dispersion was left to agitate for 18 h, and subjected to concentration via ultrafiltration through Amicon Ultra-15 centrifugal filters (3 kDa MWCO, […]) for 4, 20 mins spins at 5000 RCF. Aliquots were frozen and lyophilized for later studies.
Drug loading was quantified by absorbance ([…] for quisinostat, panobinostat and dacinostat; 285 nm for givinostat; 365 nm for camptothecin; 550 nm for Nile Red) on a Tecan plate reader. Lyophilized nanoparticles were dissolved at 5 mg/ml in DMSO. Samples were plated in triplicate ([…], nanoparticles and 10 μL DMSO per well) in a clear, flat bottom 96-well assay plate. A control curve was constructed in technical triplicate by adding 40 μL blank nanoparticles per well and spiking with 10 μL of known drug concentration in DMSO. Experimental drug loading was calculated as mass of drug/mass of nanoparticles (w/w %). 40 μL of bortezomib loaded nanoparticles (5 mg/ml aqueous solution) were extracted with 100 μL of ethylacetate. The ethylacetate layer was collected and dried under nitrogen. The contents were dissolved in 40 μL of DMSO and plated in triplicate. A control curve was constructed in technical triplicate by spiking with 10 μL of known drug concentration in DMSO. Absorbance was measured at 285 nm. Experimental drug loading was calculated as mass of drug/mass of nanoparticles (w/w %).

Another series concerns GL261 cells. Nature of the series: in vitro GL261 cell viability assay (CellTiter-Glo). Particulars: 72 hours of incubation, CDN-4 21% drug loaded. It is filed as cell-based, murine. As for the experimental part:
For IC50 experiments, GL261 cells were seeded at […] into 96 well plates containing Dulbecco's Modified Eagle Medium (DMEM) and 10% Fetal Bovine Serum (FBS). Cells were given 4 hours to adhere prior to drug treatments. Free panobinostat, drug-loaded and blank CDN-4 (21% drug loaded) were dispersed in 2.5% DMSO in cell culture media at 10 mg/mL drug concentration. Equivalent doses were added to the 96 well plates at 16 serial dilutions with concentrations from 0-70 μM and incubated at 37° C. with 5% CO2 for 72 hours. Cell viability was determined with an IC50 value obtained from a CellTiter-Glo Luminescence assay and calculated using GraphPad Prism (San Diego, CA USA). For uptake experiments, GL261 cells were seeded at 90,000 cells/1 mL into 48 well plates containing DMEM and 10% FBS. Panobinostat loaded CDN-4 nanoparticles (250 ug) were incubated with cells for 48 hours, after which cells were thoroughly washed, fixed, and counterstained with DAPI. Images were collected on an upright Nilkon Ti2 microscope.
On the technique in general: Cellular ATP, detected with luciferase, serves as a proxy for viable cell number.

For series [2] the following is noted: mouse, in vivo. As for the experimental part: All animal procedures were approved by the Institutional Animal Care and Use Committee at University of Texas Health Science at Houston in accordance with all relevant guidelines. Healthy, female NSG mice were used for in vivo experiments. CDN nanoparticles were administered by direct infusion into the cisternal magna. Briefly, mice were anesthetized with isoflurane (2%) and mounted on a stereotaxic frame (Kopf Instruments, Tujunga, CA, USA). With the head tilted forward, an incision was made across the back of the neck and muscles were gentle retracted to expose the atlanto-occipal membrane. A Hamilton syringe (29 gauge needle, 30° bevel tip) in a 2 uL volume delivered over 1 minute at an injection dept of 1 mm. The needle was left in place for an additional 2 minutes to prevent backflow. All animals received a subcutaneous injection of buprenorphine (1 mg/kg) prior to surgery, and other analgesics to control pain. For MTD studies, panobinostat loaded CDN-4 nanoparticles were administered at increasing concentrations. […] For pharmacokinetic studies, mice received CDN-4 nanoparticles at a dose of 560 ug panobinostat and euthanized at specified time points (1, 4, 8, 24, and 48 hours after nanoparticle administration, n=5 mice per time point). One mouse in the 24 hour time point died during surgery, leaving n=4 for that experimental group. […]

For series [3] the following is noted: background statement; cited from earlier work.

A word on the IC50: it is the concentration needed to halve the response being measured.

Molecules are shown by their SMILES.

For `Cn1cc(CNCC2CCN(c3ncc(C(=O)NO)cn3)CC2)c2ccccc21` [quisinostat], the “drug loading in CDNs 1-3” value in series [1] is “loaded particularly well”.
For `Cc1[nH]c2ccccc2c1CCNCc1ccc(/C=C/C(=O)NO)cc1` [non-CDN-formulated Pb], the 50% inhibitory concentration (IC50) in the series with GL261 cells worked out at 230 nM.
On to `O=C(/C=C/c1ccc(CN(CCO)CCc2c[nH]c3ccccc23)cc1)NO` [dacinostat], for which the “drug loading in CDNs 1-3” value in series [1] is recorded as “loaded particularly well”.
Consider `CCN(CC)Cc1ccc2cc(COC(=O)Nc3ccc(C(=O)NO)cc3)ccc2c1` [givinostat], for which the “drug loading in CDNs 1-3” value in series [1] is on record as “loaded particularly well”.
As for `CC(C)C[C@H](NC(=O)[C@H](Cc1ccccc1)NC(=O)c1cnccn1)B(O)O` [bortezomib], the “drug loading in CDNs 1-3” value in series [1] was “loaded particularly well”.
For `Nc1ccn([C@@H]2O[C@H](CO)[C@@H](O)[C@@H]2O)c(=O)n1` [cytarabine], the “experimental loading with all the CDNs” value in series [1] (control hydrophilic drug, data not shown) is “poor experimental loading”.
Turning to `Cc1[nH]c2ccccc2c1CCNCc1ccc(/C=C/C(=O)NO)cc1` [panobinostat], in the series with GL261 cells (Mus musculus, GL261), 170 nM corresponded to half-maximal inhibition (IC50). Further, the panobinostat in plasma entry in series [2] is on record as “undetectable”. Moreover, in series [3], the water solubility result is recorded as “poorly water soluble”.
